From US20250388605A1, “HETEROBIFUNCTIONAL COMPOUNDS AND METHODS OF TREATING DISEASE” (Halda Therapeutics OpCo, Inc., priority 2022, published 2025)

The molecules below were run against T1, androgen receptor (Homo sapiens, UniProt P10275) (assay: Assay for binding affinity to androgen receptor ([3H]methyltrienolone radioligand competition, cell cytosol)). Conditions: binding to the androgen receptor, 1 nM [3H]methyltrienolone, 24 hr at 4° C.
T1 construct: host or cells: unnamed cells, cytosolic fraction
T1 sequence (P10275 1-920): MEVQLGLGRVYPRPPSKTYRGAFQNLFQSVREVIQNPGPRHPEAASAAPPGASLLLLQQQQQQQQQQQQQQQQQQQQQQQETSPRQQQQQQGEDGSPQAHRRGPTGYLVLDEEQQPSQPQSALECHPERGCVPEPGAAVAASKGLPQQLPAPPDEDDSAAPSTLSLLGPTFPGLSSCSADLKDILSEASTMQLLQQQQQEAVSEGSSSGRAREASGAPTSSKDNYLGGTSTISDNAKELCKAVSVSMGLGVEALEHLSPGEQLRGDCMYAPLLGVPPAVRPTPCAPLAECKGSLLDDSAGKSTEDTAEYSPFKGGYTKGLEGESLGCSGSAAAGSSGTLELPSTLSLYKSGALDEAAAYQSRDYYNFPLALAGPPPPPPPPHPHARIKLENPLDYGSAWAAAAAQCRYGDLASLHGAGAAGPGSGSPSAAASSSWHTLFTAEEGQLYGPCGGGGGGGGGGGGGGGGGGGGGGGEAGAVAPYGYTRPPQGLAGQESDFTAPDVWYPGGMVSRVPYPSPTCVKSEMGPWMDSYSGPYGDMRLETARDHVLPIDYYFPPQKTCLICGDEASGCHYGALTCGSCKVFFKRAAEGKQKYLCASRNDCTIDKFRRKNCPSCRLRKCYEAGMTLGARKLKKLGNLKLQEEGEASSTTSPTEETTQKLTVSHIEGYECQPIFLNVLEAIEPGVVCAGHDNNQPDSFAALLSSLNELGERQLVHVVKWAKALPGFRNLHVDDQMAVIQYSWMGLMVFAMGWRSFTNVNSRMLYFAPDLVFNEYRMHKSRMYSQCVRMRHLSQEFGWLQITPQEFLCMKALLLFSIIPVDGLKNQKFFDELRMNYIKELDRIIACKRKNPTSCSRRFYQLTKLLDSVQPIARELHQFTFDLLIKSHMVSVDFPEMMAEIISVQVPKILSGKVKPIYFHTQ
Procedure: Fractions of cell cytosol ([…]) were incubated for 24 hr at 4° C. with 1 nM [^3H]methyltrienolone in the absence or presence of the test compound in a buffer containing 25 mM Hepes-Tris (pH 7.4), 1 mM EDTA, 10 mM Na2MoO4, 2 mM DTT, 5 μM triamcinolone acetonide, and 10% glycerol. Nonspecific binding was determined in the presence of […] testosterone. Following incubation, the samples were filtered rapidly under vacuum through glass fiber filters (GF/B, Packard) presoaked with 0.3% PEI and rinsed several times with ice-cold 50 mM Tris-HCl using a 96-sample cell harvester (Unifilter, Packard). The filters were dried then counted for radioactivity in a scintillation counter (Topcount, Packard) using a scintillation cocktail (Microscint 0, Packard). The results are expressed as a percent inhibition of the control radioligand specific binding. The standard reference compound is testosterone, which is tested in each experiment at several concentrations to obtain a competition curve from which its IC50 is calculated.

Ki, < 50 nM:
CCS(=O)(=O)Nc1ccc(Oc2cccc(NCCOC3CCN(c4ncc(C(=O)N[C@H]5C(C)(C)[C@H](Oc6ccc(C#N)c(Cl)c6)C5(C)C)cn4)CC3)c2)c(-c2cn(C)c(=O)c3[nH]ccc23)c1 [Compound I-84]
CCS(=O)(=O)Nc1ccc(Oc2cccc(OCCOC3CCN(c4ncc(C(=O)N[C@H]5C(C)(C)[C@H](Oc6ccc(C#N)c(Cl)c6)C5(C)C)cn4)CC3)n2)c(-c2cn(C)c(=O)c3[nH]ccc23)c1 [Compound I-47, N-((1r, 3r)-3-(3-chloro-4-cyanophenoxy)-2,2,4,4-tetra-methylcyclobutyl)-2-(4-(2-((6-(4-(ethylsulfonamido)-2-(6-methyl-7-oxo-6,7-dihydro-1H-pyrrolo[2,3-c]pyridin-4-yl)phenoxy)pyridin-2-yl)oxy)ethoxy)piperidin-1-yl)pyrimidine-5-carboxamide]
CCS(=O)(=O)Nc1ccc(Oc2cccc(N3CC(N(C)C4CN(c5ncc(C(=O)N[C@H]6C(C)(C)[C@H](Oc7ccc(C#N)c(Cl)c7)C6(C)C)cn5)C4)C3)c2)c(-c2cn(C)c(=O)c3[nH]ccc23)c1 [Compound I-120]
CCS(=O)(=O)c1ccc(Oc2cccc(OCCOC3CCN(c4ccc(C(=O)N[C@H]5C(C)(C)[C@H](Oc6ccc(C#N)c(Cl)c6)C5(C)C)cn4)CC3)c2F)c(-c2cn(C)c(=O)c3[nH]ccc23)c1 [Compound I-185]
CCS(=O)(=O)Nc1ccc(Oc2cccc(N3CC(CC4CN(c5ncc(C(=O)N[C@H]6C(C)(C)[C@H](Oc7ccc(C#N)c(Cl)c7)C6(C)C)cn5)C4)C3)c2)c(-c2cn(C)c(=O)c3[nH]ccc23)c1 [Compound I-158]
CCS(=O)(=O)Nc1ccc(Oc2cccc(OCCOCCOC3CCN(c4ncc(C(=O)N[C@H]5C(C)(C)[C@H](Oc6ccc(C#N)c(Cl)c6)C5(C)C)cn4)CC3)c2)c(-c2cn(C)c(=O)c3[nH]ccc23)c1 [Compound I-13]
CCS(=O)(=O)Nc1ccc(Oc2cccc(OCCOCCOCCOCCOCCOC3CCN(c4ncc(C(=O)N[C@H]5C(C)(C)[C@H](Oc6ccc(C#N)c(Cl)c6)C5(C)C)cn4)CC3)c2)c(-c2cn(C)c(=O)c3[nH]ccc23)c1 [Compound I-8]
CCS(=O)(=O)N(C)c1ccc(Oc2cccc(N3CCN(C4CN(c5ncc(C(=O)N[C@H]6C(C)(C)[C@H](Oc7ccc(C#N)c(Cl)c7)C6(C)C)cn5)C4)CC3)c2)c(-c2cn(C)c(=O)c3[nH]ccc23)c1 [Compound I-118]
Cn1cc(-c2cc(N)ccc2Oc2cccc(OCCN3CCN(c4ncc(C(=O)N[C@H]5C(C)(C)[C@H](Oc6ccc(C#N)c(Cl)c6)C5(C)C)cn4)CC3)c2F)c2cc[nH]c2c1=O [Compound I-100]
Cn1cc(-c2ccccc2Oc2cccc(OCCN3CCN(c4ncc(C(=O)N[C@H]5C(C)(C)[C@H](Oc6ccc(C#N)c(Cl)c6)C5(C)C)cn4)CC3)c2)c2cc[nH]c2c1=O [Compound I-98]
CCS(=O)(=O)Nc1ccc(Oc2cccc(N3CCN(C4CN(c5ncc(C(=O)N[C@H]6C(C)(C)[C@H](Oc7ccc(C#N)c(Cl)c7)C6(C)C)cn5)C4)CC3)c2)c(-c2cn(C)c(=O)c3[nH]ccc23)c1 [Compound I-126]
CCS(=O)(=O)Nc1ccc(Oc2cccc(CCOC3CCN(c4ncc(C(=O)N[C@H]5C(C)(C)[C@H](Oc6ccc(C#N)c(Cl)c6)C5(C)C)cn4)CC3)c2)c(-c2cn(C)c(=O)c3[nH]ccc23)c1 [Compound I-19]
CCS(=O)(=O)Nc1ccc(Oc2cccc(N(C)C3CN(CC4CCN(c5ncc(C(=O)NC6C(C)(C)C(Oc7ccc(C#N)c(Cl)c7)C6(C)C)cn5)CC4)C3)c2)c(-c2cn(C)c(=O)c3[nH]ccc23)c1 (stereo not drawn) [Compound I-39]
CCS(=O)(=O)Nc1ccc(Oc2cccc(OCCOC3CCN(c4ccc(C(=O)N[C@H]5C(C)(C)[C@H](Oc6ccc(C#N)c(Cl)c6)C5(C)C)nn4)CC3)c2)c(-c2cn(C)c(=O)c3[nH]ccc23)c1 [Compound I-11]
Cn1cc(-c2cc(N)ccc2Oc2cccc(OCCC3CCN(c4ncc(C(=O)N[C@H]5C(C)(C)[C@H](Oc6ccc(C#N)c(Cl)c6)C5(C)C)cn4)CC3)c2)c2cc[nH]c2c1=O [Compound I-101]
